Measured values published in the supplement of paper PMC10307832.

Key:
Assay in all cases: relative viability (nuclei count vs DMSO), 5 days (fraction); higher = more cells survive
[1] = compound: NC(=O)c1ccc(N(C(N)=O)c2c(F)cccc2F)nc1-c1ccc(F)cc1F [VX-702]
Procedure, shortened: (§1)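 Five library-drug doses, separated by factors of √10, were pinned into 1536-well plates holding lung cancer cell lines after an overnight stay at 37 °C. Cells were fixed, permeabilised and Hoechst-stained in one step after 5 days without medium change, then imaged at 4×. Viability compares treated-well with vehicle-well nuclei, counted in MetaXpress, as a median across plates. Passing plates had control CV below 25% and at least one doubling.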

[2] = compound: CC(C)(C)c1nc(-c2cccc(NS(=O)(=O)c3c(F)cccc3F)c2F)c(-c2ccnc(N)n2)s1 [Dabrafenib]
Procedure, shortened: as §1

[3] = compound: CC(C)(C)c1nc(-c2cccc(NS(=O)(=O)c3c(F)cccc3F)c2F)c(-c2ccnc(N)n2)s1 [Dabrafenib] + COc1cc2c(Oc3ccc(NC(=O)C4(C(=O)Nc5ccc(F)cc5)CC4)cc3F)ccnc2cc1OCCCN1CCOCC1 [Foretinib] (partner 0.25 µM)
Procedure, shortened: (§2)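 For relative viability, nuclei counts in treated wells were divided by those in vehicle wells. Lung cancer cell lines had been pin-tool dosed in 1536-well plates the day after seeding and cultured for 5 days, then fixed and stained in one step (final 0.05% Triton X-100, 1% formaldehyde, 1 ug/ml Hoechst) and imaged at 4×. Doses were one drug alone or a fixed anchor-drug dose plus five library-drug doses (not always all listed) in √10 steps, and values are duplicate-plate medians.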

[4] = compound: CC(C)(C)c1nc(-c2cccc(NS(=O)(=O)c3c(F)cccc3F)c2F)c(-c2ccnc(N)n2)s1 [Dabrafenib] + CC1(C)CCC(c2ccc(Cl)cc2)=C(CN2CCN(c3ccc(C(=O)NS(=O)(=O)c4ccc(N[C@H](CCN5CCOCC5)CSc5ccccc5)c(S(=O)(=O)C(F)(F)F)c4)cc3)CC2)C1 [Navitoclax] (partner 0.5 µM)
Procedure, shortened: as §2

Q: Which relative viability ([1]; 0.02 µM) does the source give for PC-3 [JPC-3] here?
A: 1.11

Q: What about the relative viability ([1]; 0.2 µM) of the same cell line?
A: 0.988

Q: What about the relative viability ([1]; 0.6325 µM) of the same cell line?
A: 1.13

Q: And the relative viability ([1]; 2 µM)?
A: 1.06

Q: And the relative viability ([2]; 0.003 µM)?
A: 0.822

Q: What about the relative viability ([2]; 0.009487 µM) of the same cell line?
A: 1.08

Q: What about the relative viability ([2]; 0.03 µM) of the same cell line?
A: 1.11

Q: And the relative viability ([2]; 0.09487 µM)?
A: 1.03

Q: And the relative viability ([2]; 0.3 µM)?
A: 1.13

Q: What about the relative viability ([3]; first compound 0.003 µM) of the same cell line?
A: 1

Q: And the relative viability ([3]; first compound 0.009487 µM)?
A: 1.09

Q: And the relative viability ([3]; first compound 0.03 µM)?
A: 1.1

Q: What about the relative viability ([3]; first compound 0.09487 µM) of the same cell line?
A: 0.997

Q: And the relative viability ([3]; first compound 0.3 µM)?
A: 1.01

Q: And the relative viability ([4]; first compound 0.003 µM)?
A: 0.85

Q: And the relative viability ([4]; first compound 0.009487 µM)?
A: 0.829

Q: And the relative viability ([4]; first compound 0.03 µM)?
A: 0.822

Q: What about the relative viability ([4]; first compound 0.09487 µM) of the same cell line?
A: 0.781

Q: And the relative viability ([4]; first compound 0.3 µM)?
A: 0.788

Q: How did the relative viability ([1]; 0.02 µM) turn out when PC-14 was run?
A: 1.11

Q: What about the relative viability ([1]; 0.2 µM) of the same cell line?
A: 1.03

Q: What about the relative viability ([1]; 0.6325 µM) of the same cell line?
A: 1.12

Q: And the relative viability ([1]; 2 µM)?
A: 0.873

Q: And the relative viability ([2]; 0.003 µM)?
A: 0.795

Q: What about the relative viability ([2]; 0.009487 µM) of the same cell line?
A: 1.05

Q: What about the relative viability ([2]; 0.03 µM) of the same cell line?
A: 1.11

Q: What about the relative viability ([2]; 0.09487 µM) of the same cell line?
A: 1.01

Q: And the relative viability ([2]; 0.3 µM)?
A: 1.1

Q: And the relative viability ([3]; first compound 0.003 µM)?
A: 0.861

Q: And the relative viability ([3]; first compound 0.009487 µM)?
A: 0.972

Q: And the relative viability ([3]; first compound 0.03 µM)?
A: 0.933

Q: And the relative viability ([3]; first compound 0.09487 µM)?
A: 0.979

Q: And the relative viability ([3]; first compound 0.3 µM)?
A: 0.958

Q: What about the relative viability ([4]; first compound 0.003 µM) of the same cell line?
A: 1.01

Q: What about the relative viability ([4]; first compound 0.009487 µM) of the same cell line?
A: 0.977

Q: And the relative viability ([4]; first compound 0.03 µM)?
A: 1.05

Q: And the relative viability ([4]; first compound 0.09487 µM)?
A: 1.01

Q: What about the relative viability ([4]; first compound 0.3 µM) of the same cell line?
A: 1.06

Q: RERF-LC-KJ was tested. Which relative viability ([1]; 0.02 µM) did it give?
A: 0.989

Q: And the relative viability ([1]; 0.2 µM)?
A: 1.03

Q: What about the relative viability ([1]; 0.6325 µM) of the same cell line?
A: 1.01

Q: What about the relative viability ([1]; 2 µM) of the same cell line?
A: 1.03

Q: And the relative viability ([2]; 0.003 µM)?
A: 1

Q: And the relative viability ([2]; 0.009487 µM)?
A: 1.15

Q: What about the relative viability ([2]; 0.03 µM) of the same cell line?
A: 0.969

Q: And the relative viability ([2]; 0.09487 µM)?
A: 0.986

Q: And the relative viability ([2]; 0.3 µM)?
A: 1.1

Q: And the relative viability ([3]; first compound 0.003 µM)?
A: 0.854

Q: What about the relative viability ([3]; first compound 0.009487 µM) of the same cell line?
A: 0.859

Q: And the relative viability ([3]; first compound 0.03 µM)?
A: 0.845

Q: And the relative viability ([3]; first compound 0.09487 µM)?
A: 0.935

Q: And the relative viability ([3]; first compound 0.3 µM)?
A: 1.09

Q: And the relative viability ([4]; first compound 0.003 µM)?
A: 1.21

Q: And the relative viability ([4]; first compound 0.009487 µM)?
A: 1.21

Q: And the relative viability ([4]; first compound 0.03 µM)?
A: 0.902

Q: What about the relative viability ([4]; first compound 0.3 µM) of the same cell line?
A: 1.15

Q: How did the relative viability ([1]; 0.02 µM) turn out when SK-LU-1 was run?
A: 1.15

Q: And the relative viability ([1]; 0.2 µM)?
A: 1.04

Q: What about the relative viability ([1]; 0.6325 µM) of the same cell line?
A: 1.1

Q: What about the relative viability ([1]; 2 µM) of the same cell line?
A: 1.17

Q: And the relative viability ([2]; 0.009487 µM)?
A: 1.03

Q: And the relative viability ([2]; 0.03 µM)?
A: 0.661

Q: What about the relative viability ([2]; 0.09487 µM) of the same cell line?
A: 0.681

Q: And the relative viability ([2]; 0.3 µM)?
A: 0.762

Q: What about the relative viability ([3]; first compound 0.009487 µM) of the same cell line?
A: 0.848

Q: What about the relative viability ([3]; first compound 0.03 µM) of the same cell line?
A: 0.633

Q: What about the relative viability ([3]; first compound 0.09487 µM) of the same cell line?
A: 0.64

Q: What about the relative viability ([3]; first compound 0.3 µM) of the same cell line?
A: 0.757

Q: And the relative viability ([4]; first compound 0.003 µM)?
A: 0.557

Q: And the relative viability ([4]; first compound 0.009487 µM)?
A: 0.789

Q: And the relative viability ([4]; first compound 0.03 µM)?
A: 0.806

Q: And the relative viability ([4]; first compound 0.09487 µM)?
A: 0.709

Q: And the relative viability ([4]; first compound 0.3 µM)?
A: 0.567

Q: What does the source list for SK-MES-1?
A: relative viability ([1]; 0.02 µM): 0.998; relative viability ([1]; 0.2 µM): 0.966; relative viability ([1]; 0.6325 µM): 0.944; relative viability ([1]; 2 µM): 0.999; relative viability ([2]; 0.003 µM): 0.81; relative viability ([2]; 0.009487 µM): 1.08; relative viability ([2]; 0.03 µM): 1.03; relative viability ([2]; 0.09487 µM): 0.954; relative viability ([2]; 0.3 µM): 0.934; relative viability ([3]; first compound 0.003 µM): 0.653; relative viability ([3]; first compound 0.009487 µM): 0.905; relative viability ([3]; first compound 0.03 µM): 1; relative viability ([3]; first compound 0.09487 µM): 0.796; relative viability ([3]; first compound 0.3 µM): 0.995; relative viability ([4]; first compound 0.003 µM): 1.22; relative viability ([4]; first compound 0.009487 µM): 1.22; relative viability ([4]; first compound 0.03 µM): 1.2; relative viability ([4]; first compound 0.09487 µM): 1.04; relative viability ([4]; first compound 0.3 µM): 1.17

Q: What does the source list for SW 1573?
A: relative viability ([1]; 0.02 µM): 1.08; relative viability ([1]; 0.2 µM): 0.923; relative viability ([1]; 0.6325 µM): 0.899; relative viability ([1]; 2 µM): 1.03; relative viability ([2]; 0.003 µM): 0.899; relative viability ([2]; 0.009487 µM): 0.916; relative viability ([2]; 0.03 µM): 1.06; relative viability ([2]; 0.09487 µM): 0.989; relative viability ([2]; 0.3 µM): 1.05; relative viability ([3]; first compound 0.003 µM): 0.757; relative viability ([3]; first compound 0.009487 µM): 0.992; relative viability ([3]; first compound 0.03 µM): 0.806; relative viability ([3]; first compound 0.09487 µM): 1.01; relative viability ([3]; first compound 0.3 µM): 1.05; relative viability ([4]; first compound 0.003 µM): 1.13; relative viability ([4]; first compound 0.009487 µM): 1.04; relative viability ([4]; first compound 0.03 µM): 0.998; relative viability ([4]; first compound 0.09487 µM): 0.755; relative viability ([4]; first compound 0.3 µM): 1.06

Q: What does the source list for UMC-11?
A: relative viability ([1]; 0.02 µM): 0.923; relative viability ([1]; 0.2 µM): 0.857; relative viability ([1]; 0.6325 µM): 0.82; relative viability ([1]; 2 µM): 1.12; relative viability ([2]; 0.003 µM): 1.04; relative viability ([2]; 0.009487 µM): 0.988; relative viability ([2]; 0.03 µM): 0.855; relative viability ([2]; 0.09487 µM): 0.997; relative viability ([2]; 0.3 µM): 0.956; relative viability ([3]; first compound 0.003 µM): 1.13; relative viability ([3]; first compound 0.009487 µM): 1.12; relative viability ([3]; first compound 0.03 µM): 1.06; relative viability ([3]; first compound 0.09487 µM): 0.984; relative viability ([3]; first compound 0.3 µM): 1.13; relative viability ([4]; first compound 0.003 µM): 0.295; relative viability ([4]; first compound 0.009487 µM): 0.369; relative viability ([4]; first compound 0.03 µM): 0.315; relative viability ([4]; first compound 0.09487 µM): 0.356; relative viability ([4]; first compound 0.3 µM): 0.332
